Measured values as given in patent publication US20160324881A1, “Neurokinin-1 Receptor Antagonists For Use In A Method Of Prevention Of Cancer” (priority 2013, published 2016).
Read-outs that look alike come from different tables or passages of the source.

Experiments:
HCT116 cells = test: Soft agar growth assay (Alamar Blue), HCT116; assay type: cell-based; conditions: Homo sapiens, HCT-116, 192 h
Procedure: (§2) Aprepitant (Biorbit) and fosaprepitant (IVEMEND®, MSD) were dissolved at a concentration of 100 mM in 100% DMSO (aprepitant) or in 0.9% NaCl (fosaprepitant). Actinomycin D was used as reference compound.
(§3) Stock solutions were diluted covering the final concentration range between 0 and 200 μM. The appropriate solvent controls were performed in parallel.
(§4) Compounds dissolved in DMSO (aprepitant as well as Actinomycin D) were diluted in 8 semilog steps in DMSO to obtain a dilution series with the 1000 fold final concentration.
(§5) Fosaprepitant was diluted in 8 semilog steps in 0.9% NaCl to obtain a dilution series with the 1000 fold final concentration.
(§6) Cancer cells stemming from established cancer cell lines (A549, HCT116, MDA-MB231) were cultured in DMEM containing 10% FCS and Penicillin/Streptomycin.
(§7) For each cell line 96 well suspension cell culture plates were prepared. 100 μL of the soft agar bottom layer (0.6% final concentration in complete medium) was poured and left to solidify. […]
(§8) Next day, compounds were added into the inner wells of the plate. […] Finally, the assays were developed using Alamar Blue and upon 3-5 h of incubation at 37° C. fluorescence intensity was determined (excitation: 560 nm; emission: 590 nm). […]

MDA-MB-231 cells = test: Xenograft tumor model, preventive application, MDA-MB-231; conditions: aprepitant 100 mg/kg p.o., fosaprepitant 60 mg/kg i.v., 1x daily from day -2
Procedure: (§9) The ability of fosaprepitant and aprepitant to prevent tumor formation in xenograft models for breast cancer, lung cancer and colon cancer was investigated.
(§10) Monolayer MDA-MB-231 cells, HCT-116 cells and A549 cells, respectively, were grown in DMEM+10% FCS. The cells were cultured in a humidified atmosphere of 90% air and 10% carbon dioxide at 37° C. Media was routinely changed every 3 days. Confluent cultures were split 1:3 to 1:3 every 3-4 days using Trypsin/EDTA and seeded at a density of approximately 3-4×10^6 cells/15 cm^2+25 mL medium.
(§11) Female BALB/c nude (CAnN.Cg-Foxn1^nu/Crl) Mice (Charles River GmbH, Sulzfeld, Germany) aged 4-5 weeks at delivery and weighing approximately 15-18 g were kept under optimum hygienic conditions, air-conditioned with 10-15 air changes per hour, and continually monitored environment with target ranges for temperature 22±3° C. and for relative humidity 30-70%, 12 hours artificial fluorescent light/12 hours dark. Maximum 4 animals were kept per individual ventilated cage (IVC) and fed with a diet consisting of M-Zucht (ssniff Spezialdiáten GmbH) and autoclaved community tab water.
(§12) After an acclimatization period of 4 days (day −2) application of fosaprepitant, aprepitant and vehicle was started: Fosaprepitant was administered intravenously (i.v.) once daily for 20 days, and aprepitant was administered per oral gavage (p.o.) once daily for 20 days. Fosaprepitant was dissolved in 0.9% NaCl and 0.9% NaCl was used analogous to fosaprepitant as control (vehicle 1). As aprepitant is not water-soluble, it was provided as a suspension of ground EMEND® tablets in OraPlus® (Paddock Laboratories, Minneapolis, USA; contains: purified water, microcrystalline cellulose, carboxymethylcellulose sodium, xanthan gum, flavouring, citric acid, sodium phosphate, simethicone, methylparaben, and potassium sorbate, pH 4.2) and OraPlus® was used analogous to aprepitant as control (vehicle 2).
(§13) In the following, animal weights were measured (balance: Mettler Toledo PB602-L). Primary tumor sizes were measured by callipering (manual calliper, OMC Fontana). Tumor sizes were calculated according to the formula W^2×L/2 (L=length and W=the perpendicular width of the tumor, L>W).
(§14) Animal behavior and welfare was observed daily and tumor growth was recorded every two days by calliper measurement over a period of 30 days.

[1] = capsules; cited from earlier work
MDA-MB231 cells = test: Soft agar growth assay (Alamar Blue), MDA-MB231; assay type: cell-based; conditions: Homo sapiens, MDA-MB-231, 264 h
Procedure: as §2, §3, §4, §5, §6, §7, §8

brain tumors = conditions: background report; cited from earlier work
HCT-116 cells = test: Xenograft tumor model, preventive application, HCT116; conditions: aprepitant 100 mg/kg p.o., fosaprepitant 60 mg/kg i.v., 1x daily from day -2
Procedure: as §9, §10, §11, §12, §13, §14

NK1 receptors = NK1 receptors (Homo sapiens, UniProt P25103); conditions: versus other receptors such as serotonin, dopamine, corticosteroid; estimated; cited from earlier work
Chain of NK1 receptors (P25103 whole entry): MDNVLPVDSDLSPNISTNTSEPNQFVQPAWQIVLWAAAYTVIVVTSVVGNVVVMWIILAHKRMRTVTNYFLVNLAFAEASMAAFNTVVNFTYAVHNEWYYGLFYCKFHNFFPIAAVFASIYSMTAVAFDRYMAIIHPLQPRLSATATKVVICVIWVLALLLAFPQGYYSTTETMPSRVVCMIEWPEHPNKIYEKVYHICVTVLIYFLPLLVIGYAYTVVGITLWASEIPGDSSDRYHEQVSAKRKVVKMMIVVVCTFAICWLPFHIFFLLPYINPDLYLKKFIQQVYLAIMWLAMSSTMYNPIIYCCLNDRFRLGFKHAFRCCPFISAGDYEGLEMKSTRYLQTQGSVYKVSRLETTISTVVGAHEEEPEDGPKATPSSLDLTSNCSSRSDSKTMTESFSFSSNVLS

[2] = cited from earlier work
A549 cells [3] = test: Soft agar growth assay (Alamar Blue), A549; assay type: cell-based; conditions: Homo sapiens
Procedure: as §2, §3, §4, §5, §6, §7, §8

A549 cells [4] = test: Xenograft tumor model, preventive application, A549; conditions: aprepitant 100 mg/kg p.o., fosaprepitant 60 mg/kg i.v., 1x daily from day -2
Procedure: as §9, §10, §11, §12, §13, §14

[5] = test system: MDA-MB-231 cells (triple negative tumor cells); test: Example 5: preventive treatment of xenografted nude mice (FIG. 4); assay type: in vivo; conditions: MDA-MB-231 xenograft; fosaprepitant i.v. 60 mg/kg/d, aprepitant p.o. 100 mg/kg/d, once daily for 19 days from day -2
Procedure: (§1) After an acclimatization period, application of fosaprepitant, aprepitant and vehicle control was started (day −2): Fosaprepitant was administered intravenously (i.v.; 60 mg/kg/d) once daily for 19 days, and aprepitant was administered per oral gavage (p.o.; 100 mg/kg/d) once daily for 19 days. […] The tumor volume was measured and depicted as mm3 at the indicated time points.
as §1, with “FIG. 4: In vivo treatment of xenografted mice with fosaprepitant and aprepitant. After” for “After”

[6] = MDA-MB-231, 10 days after tumor cell inoculation
[7] = MDA-MB-231, 20 days after tumor cell inoculation
[8] = MDA-MB-231, 30 days after tumor cell inoculation
[9] = HCT116, 10 days after tumor cell inoculation
[10] = HCT116, 20 days after tumor cell inoculation
[11] = HCT116, 30 days after tumor cell inoculation
[12] = A549, 10 days after tumor cell inoculation
[13] = A549, 20 days after tumor cell inoculation
[14] = A549, 30 days after tumor cell inoculation

With `C[C@@H](O[C@H]1OCCN(Cc2nc(=O)[nH][nH]2)[C@H]1c1ccc(F)cc1)c1cc(C(F)(F)F)cc(C(F)(F)F)c1` [Aprepitant] the IC50 (HCT116 cells; HCT116 (colon), soft agar growth, incubation time 8 days, read-out: IC50) was 3.4 µM, the “Tumor volume (mean)” value (MDA-MB-231 cells; [6]) was under 20 mm^3 and the “Tumor volume (mean)” value (MDA-MB-231 cells; [7]) was under 20 mm^3. The “Tumor volume (mean)” value (MDA-MB-231 cells; [8]) was under 20 mm^3, the average oral bioavailability [1] was 60-65% and the IC50 (MDA-MB231 cells; MDA-MB231 (breast), soft agar growth, incubation time 11 days, read-out: IC50) was 17 µM. The brain tumor growth (brain tumors) was “reduce brain tumor growth”, the “Tumor volume (mean)” value (HCT-116 cells; [9]) was under 20 mm^3 and the “Tumor volume (mean)” value (HCT-116 cells; [10]) was under 20 mm^3. For the same molecule, the “Tumor volume (mean)” value (HCT-116 cells; [11]) was under 20 mm^3, the “selectivity of NK1 receptors compared to other enzyme transporter, ion channels” value (NK1 receptors) was “at least 3000 times” and the “water solubility” value [2] was “virtually water-insoluble”. The IC50 (A549 cells [3]; 192 h, A549 (lung), soft agar growth, incubation time 8 days, read-out: IC50) was 3.6 µM, the “Tumor volume (mean)” value (A549 cells [4]; [12]) was under 20 mm^3 and the “Tumor volume (mean)” value (A549 cells [4]; [13]) was under 20 mm^3. The “Tumor volume (mean)” value (A549 cells [4]; [14]) was under 20 mm^3 and the “Tumor growth on preventive application” value [5] was “reduced growth of triple negative tumor cells”.

In the case of `C[C@@H](O[C@H]1OCCN(Cc2nc(O)n(P(=O)(O)O)n2)[C@H]1c1ccc(F)cc1)c1cc(C(F)(F)F)cc(C(F)(F)F)c1` [Fosaprepitant], the IC50 (HCT116 cells) is reported as 3 µM, the “Tumor volume (mean)” value (MDA-MB-231 cells; [6]) is reported as under 20 mm^3 and the “Tumor volume (mean)” value (MDA-MB-231 cells; [7]) is reported as under 20 mm^3. For the same molecule, the “Tumor volume (mean)” value (MDA-MB-231 cells; [8]) was under 20 mm^3, the IC50 (MDA-MB231 cells) was 36 µM and the “Tumor volume (mean)” value (HCT-116 cells; [9]) was under 20 mm^3. For the same molecule, the “Tumor volume (mean)” value (HCT-116 cells; [10]) was under 20 mm^3, the “Tumor volume (mean)” value (HCT-116 cells; [11]) was under 20 mm^3 and the “water solubility” value [2] was “water-soluble”. For the same molecule, the IC50 (A549 cells [3]; A549, 192 h) was 1.7 µM, the “Tumor volume (mean)” value (A549 cells [4]; [12]) was under 20 mm^3 and the “Tumor volume (mean)” value (A549 cells [4]; [13]) was under 20 mm^3. For the same molecule, the “Tumor volume (mean)” value (A549 cells [4]; [14]) was under 20 mm^3 and the “Tumor growth on preventive application” value [5] was “reduced growth of triple negative tumor cells”.
